Paper PMC9356275, “A quantitative high-throughput screen identifies compounds that lower expression of the SCA2-and ALS-associated gene ATXN2” (The Journal of Biological Chemistry, 2022)
Where a name gives a salt, the structure may show the parent alone. Read-outs that look alike come from different tables or passages of the source.

Key:
Assay type in all cases: cell-based, human
ATXN2-luc [1] = experiment: MSSR pilot screen: ATXN2-luc luciferase assay (Bright-Glo) in H2 cells, single 10 μM dose; conditions: for SD from mean (ATXN2-luc, Z-score): H2 cells, single dose (title: 10 μM compound), overnight; for ¦Score/1SD¦: absolute score divided by 1SD (0.891 or 0.9)
ATXN2-luc [2] = experiment: MSSR hit retest / multiconcentration testing: ATXN2-luc luciferase assay in H2 cells (1 and 10 μM); conditions: for H2&S1 ave luc 1uM: 1 uM compound; for H2&S1 ave luc 10uM: 10 uM compound
ATXN2-luc [3] = experiment: MSSR hit retest: ATXN2-luc luciferase assay, average of H2 and S1 cells (1 and 10 uM); design: H2&S1 ave luc 1uM / H2&S1 ave luc 10uM: scale not given here; conditions: for H2&S1 ave luc 10uM / activity at 10 µM: head line r3 10uM; for H2&S1 ave luc 10uM: head line r4 20 uM compound; for activity at 1 µM / activity / activity at 10 µM: Homo sapiens; for activity at 1 µM: read-out: H2&S1 ave luc 1uM; for activity / activity at 10 µM: read-out: H2&S1 ave luc 10uM
Text: (§1) Supplement mmc2.xlsx, sheet "43 annotated compounds"

H2 and S1 cells = experiment: Paired MTT viability assay, average of H2 and S1 cells (1 and 10 uM); design: H2&S1 ave MTT 1uM / H2&S1 ave MTT 10uM: unit not given here; conditions: for viability at 1 µM / viability at 10 µM: Homo sapiens
Text: as §1

[4] = pilot screen, H2 cells expressing ATXN2-luc, single dose printed as 10 μM compound
[5] = luciferase assay, average of H2 and S1 cells (both ATXN2-luc), rescreen from plated libraries
[6] = 1 uM compound, average of H2 and S1 cells
[7] = read-out: H2&S1 ave MTT 1uM, 1 uM compound
[8] = read-out: H2&S1 ave MTT 10uM, 10 uM compound
[9] = 1 uM compound, read-out: H2&S1 ave MTT 1uM
[10] = 10 uM compound, read-out: H2&S1 ave MTT 10uM
[11] = pilot screen at 10 µM compound, H2 cells expressing ATXN2-luc
[12] = luciferase, average of H2 and S1 cells expressing ATXN2-luc, rescreen

| Molecule | SD from mean (ATXN2-luc, Z-score) (ATXN2-luc [1]) | SD from mean (pilot screen) (ATXN2-luc [1]; pilot screen) | SD from mean (pilot screen) (ATXN2-luc [1]; [4]) | ¦Score/1SD¦ (ATXN2-luc [1]; pilot screen) | H2&S1 ave luc 1uM (ATXN2-luc [2]; [5]) | H2&S1 ave luc 10uM (ATXN2-luc [2]; [5]) | H2&S1 ave luc 1uM (ATXN2-luc [3]; [6]) | H2&S1 ave luc 10uM (ATXN2-luc [3]; average of H2 and S1 cells) | H2&S1 ave MTT 1uM (H2 and S1 cells; 1 uM compound) | H2&S1 ave MTT 10uM (H2 and S1 cells; 10 uM compound) | SD from mean (pilot screen) (ATXN2-luc [1]; [11]) | H2&S1 ave luc 1uM (ATXN2-luc [2]; [12]) | other results |
| --- | --- | --- | --- | --- | --- | --- | --- | --- | --- | --- | --- | --- | --- |
| CO[C@H]1[C@@H](O)[C@@H](C)O[C@@H](O[C@H]2CC[C@]3(C)[C@H]4CC[C@]5(C)[C@@H](C6=CC(=O)OC6)CC[C@]5(O)[C@@H]4CC[C@]3(O)C2)[C@@H]1O [EMICYMARIN] | -3.080 SD | -3.080 SD | -3.080 | 3.42 | 115 | 31 | 115 | 31 | 111.923 | 53.425 |  |  |  |
| CNC1CC(c2ccc(Cl)c(Cl)c2)c2ccccc21 (stereo not drawn) [Indatraline] |  | -3.071 SD | -3.071 | 3.41 | 107 |  |  |  |  |  |  |  | activity at 1 µM (ATXN2-luc [3]): 107%; activity (ATXN2-luc [3]): 5.53%; viability at 1 µM (H2 and S1 cells; [7]): 117%; viability at 10 µM (H2 and S1 cells; [8]): 13.5% |
| [H]/N=C(/NCCCCC)N/N=C/c1c[nH]c2ccc(OC)cc12 [TEGASEROD MALEATE] | -3.606 SD | -3.606 SD | -3.606 | 4.01 | 105 |  |  |  |  |  |  |  | activity at 1 µM (ATXN2-luc [3]; [6]): 105%; activity at 10 µM (ATXN2-luc [3]; average of H2 and S1 cells): 8%; viability at 1 µM (H2 and S1 cells; [9]): 106%; viability at 10 µM (H2 and S1 cells; [10]): 14.2% |
| STROPH[…] LACTONE ACETATE | -3.855 SD | -3.855 SD |  | 4.28 |  |  | 37 |  | 43.5914 | 36.6277 | -3.855 | 37 | H2&S1 ave luc 10uM (ATXN2-luc [2]; [12]): 20 |
| CC(C)c1cc(/C=C(\C#N)C(=O)NCCCc2ccccc2)cc(C(C)C)c1O [SU1498] | -4.885 SD | -4.885 SD |  | 5.48 |  |  | 22 | 15 | 86.0811 | 61.708 | -4.885 | 22 | H2&S1 ave luc 10uM (ATXN2-luc [2]; [12]): 15 |
| COc1ccc(CCCOC(Cn2ccnc2)c2ccc(OC)cc2)cc1 (stereo not drawn) [SKF-96365] | -2.721 SD | -2.721 SD | -2.721 | 3.05 | 104 | 57 | 104 | 57 | 115.609 | 90.0391 |  |  |  |
| CS(=O)(=O)Nc1ccc(Cc2noc(-c3ccc4[nH]cc(CCN)c4c3)n2)cc1 [L-694 247] | -3.156 SD | -3.156 SD | -3.156 | 3.51 | 110 | 6 | 110 | 6 | 107.272 | 16.3621 |  |  |  |
| CC(N/C(=N\C#N)Nc1ccncc1)C(C)(C)C (stereo not drawn) | -4.875 SD | -4.875 SD |  | 5.47 |  |  |  |  |  |  | -4.875 | 117 | activity at 1 µM (ATXN2-luc [3]; [6]): 117%; activity at 10 µM (ATXN2-luc [3]; average of H2 and S1 cells): 17%; viability at 1 µM (H2 and S1 cells; [9]): 107%; viability at 10 µM (H2 and S1 cells; [10]): 51.5% |
| CCCCCCCCCOc1ccc2[nH]cc(CCN)c2c1 [5-Nonyloxytryptamine] | -3.607 SD | -3.607 SD | -3.607 | 4.01 | 111 |  |  |  |  |  |  |  | activity at 1 µM (ATXN2-luc [3]): 111%; activity (ATXN2-luc [3]): 4.61%; viability at 1 µM (H2 and S1 cells; [7]): 114%; viability at 10 µM (H2 and S1 cells; [8]): 23.7% |
